Test results published in publication PMC10629583, “Specific inhibition of an anticancer target, polo-like kinase 1, by allosterically dismantling its mechanism of substrate recognition” (Proceedings of the National Academy of Sciences of the …, 2023).
Entries after “also recorded” stand apart in the source; their conditions may differ.

Key:
[1] = Conversion of Allopole to Allopole-A in buffers ± GSH (LC-MS); assay type: physicochemical; conditions: room temperature, 1 h; for Compounds detected / Compounds detected, % of total / Compounds detected, pk area: 100 µM Allopole
Protocol: High-performance liquid chromatography (HPLC)/high-resolution mass spectrometry was used to determine the products derived from investigational drugs incubated under various conditions by measuring their exact masses. Thereafter, 20 μL aliquots of several drug preparations in either DMSO or aqueous reaction solutions were diluted 2:1 in ethanol, followed by centrifugation at 15,000 × g for 5 min. The supernatant was then injected on a Thermo Vanquish liquid chromatograph coupled to a Thermo Q Exactive Orbitrap mass spectrometer (Thermo Fisher Scientific). The conditions for the analysis are listed as follows.
The analytes were identified using the Dmass between the predicted and measured exact monoisotopic mass for the protonated molecular ions applied to the empirical formula algorithm in the Qual Browser application of the Xcalibur software (Themo Scientific). Selected ions from the base peak chromatogram were extracted for integration of peak areas. The relative amounts of each analyte to the sum total were calculated to estimate conversion of and prodrug under the specific conditions to breakdown products.
Table S2. Conversion of Allopole to Allopole-A under various buffer conditions, room
Buffers* Compounds detected
Allopole-A Allopole-A (-S) Allopole (-Cl) Allopole
* Buffer #1: 20 mM Tris (pH 8.0), 50 mM NaCl, 1 mM EDTA, 1% DMSO
Buffer #2: 1 x PBS (pH 7.4), 1 mM EDTA, 1% DMSO
Buffer #3: 20 mM HEPES (pH 7.0), 50 mM NaCl, 1 mM EDTA, 1% DMSO
Samples were prepared by incubating 100 µM of Allopole in the indicated buffer conditions in the
absence or presence of 5 mM GSH for 1 h at room temperature. Note that in the absence of GSH,

[2] = test system: L363 cells; test: MTS cell viability assay, L363 cells; assay type: cell-based; conditions: 48 h treatment
[3] = target: 5-HT2B (Homo sapiens, UniProt P41595); test: PDSP off-target binding screen; conditions: for inhibition at 10 µM: read-out: Primary screen AVE(%inhib)±SD
5-HT2B, sequence (P41595 whole entry): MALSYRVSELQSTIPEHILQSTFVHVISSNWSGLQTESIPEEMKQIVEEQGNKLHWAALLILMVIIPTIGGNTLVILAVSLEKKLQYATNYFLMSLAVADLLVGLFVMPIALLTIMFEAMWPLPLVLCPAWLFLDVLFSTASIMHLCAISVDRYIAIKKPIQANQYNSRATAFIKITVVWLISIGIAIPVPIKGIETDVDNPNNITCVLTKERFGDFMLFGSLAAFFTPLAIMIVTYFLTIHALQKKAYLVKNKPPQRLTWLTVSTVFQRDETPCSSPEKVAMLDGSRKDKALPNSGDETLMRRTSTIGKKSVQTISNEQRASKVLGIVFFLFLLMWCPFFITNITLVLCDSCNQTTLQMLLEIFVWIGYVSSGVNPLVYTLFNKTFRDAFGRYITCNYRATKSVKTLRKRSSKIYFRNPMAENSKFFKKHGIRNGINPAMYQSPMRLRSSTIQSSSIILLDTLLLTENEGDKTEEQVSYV

[4] = target: T1, 5-HT1B (Homo sapiens, UniProt P28222); test: PDSP off-target binding screen; conditions: for inhibition at 10 µM: read-out: Primary screen AVE(%inhib)±SD; for Ki: read-out: Secondary screen Ki
T1 construct: NIMH Psychoactive Drug Screening Program (UNC)
T1 sequence (P28222 whole entry): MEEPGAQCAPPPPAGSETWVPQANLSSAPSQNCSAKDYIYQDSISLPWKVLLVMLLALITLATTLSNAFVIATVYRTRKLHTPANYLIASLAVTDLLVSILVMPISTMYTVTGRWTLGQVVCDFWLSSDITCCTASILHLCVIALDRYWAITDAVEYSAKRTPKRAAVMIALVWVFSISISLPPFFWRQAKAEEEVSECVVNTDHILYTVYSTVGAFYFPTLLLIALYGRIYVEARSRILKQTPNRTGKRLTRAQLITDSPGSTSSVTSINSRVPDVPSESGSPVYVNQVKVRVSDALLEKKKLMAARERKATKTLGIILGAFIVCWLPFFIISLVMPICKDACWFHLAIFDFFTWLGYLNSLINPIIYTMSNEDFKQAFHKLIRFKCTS
Excerpt: (§1) PDSP no. Compound Interactions (Ki, µM)
(§2) 60477 Allopole-A None observed.
(§3) trigger a secondary screen at that receptor.

[5] = target: T2, Alpha1B (Homo sapiens, UniProt P35368); test: PDSP off-target binding screen; conditions: for inhibition at 10 µM: read-out: Primary screen AVE(%inhib)±SD; for Ki: read-out: Secondary screen Ki
T2 sequence (P35368 1-520): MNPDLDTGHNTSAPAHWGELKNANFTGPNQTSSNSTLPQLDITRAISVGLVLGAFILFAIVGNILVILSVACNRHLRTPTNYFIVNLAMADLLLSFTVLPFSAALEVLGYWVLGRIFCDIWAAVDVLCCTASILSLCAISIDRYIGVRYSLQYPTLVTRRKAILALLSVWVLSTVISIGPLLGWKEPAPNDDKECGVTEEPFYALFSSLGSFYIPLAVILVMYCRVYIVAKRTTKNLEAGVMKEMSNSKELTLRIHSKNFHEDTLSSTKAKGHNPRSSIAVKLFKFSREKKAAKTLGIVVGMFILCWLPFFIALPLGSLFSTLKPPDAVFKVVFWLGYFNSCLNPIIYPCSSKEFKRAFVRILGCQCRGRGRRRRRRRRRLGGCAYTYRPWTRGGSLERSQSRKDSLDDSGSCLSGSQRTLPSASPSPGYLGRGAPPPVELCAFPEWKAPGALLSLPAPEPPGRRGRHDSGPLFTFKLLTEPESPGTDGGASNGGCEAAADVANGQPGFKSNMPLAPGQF
Excerpt: as §1, §2, §3

[6] = target: Beta1 (Homo sapiens, UniProt P08588); test: PDSP off-target binding screen; conditions: for inhibition at 10 µM: read-out: Primary screen AVE(%inhib)±SD; for Ki: read-out: Secondary screen Ki
Beta1, sequence (P08588 whole entry): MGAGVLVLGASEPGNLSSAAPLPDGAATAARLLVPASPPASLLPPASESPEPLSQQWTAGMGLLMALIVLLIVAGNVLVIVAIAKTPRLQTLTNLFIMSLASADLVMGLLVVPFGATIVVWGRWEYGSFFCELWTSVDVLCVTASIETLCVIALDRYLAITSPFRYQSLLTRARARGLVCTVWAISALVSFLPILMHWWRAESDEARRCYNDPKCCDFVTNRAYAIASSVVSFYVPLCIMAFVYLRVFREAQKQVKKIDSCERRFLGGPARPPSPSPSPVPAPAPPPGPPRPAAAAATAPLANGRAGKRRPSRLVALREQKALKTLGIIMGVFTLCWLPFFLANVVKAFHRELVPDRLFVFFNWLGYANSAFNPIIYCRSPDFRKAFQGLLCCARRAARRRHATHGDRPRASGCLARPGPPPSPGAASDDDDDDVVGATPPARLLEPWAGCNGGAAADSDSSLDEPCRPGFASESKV
Excerpt: as §1, §2, §3

[7] = target: MOR (Homo sapiens, UniProt P35372); test: PDSP off-target binding screen; conditions: for inhibition at 10 µM: read-out: Primary screen AVE(%inhib)±SD; for Ki: read-out: Secondary screen Ki
MOR, sequence (P35372 whole entry): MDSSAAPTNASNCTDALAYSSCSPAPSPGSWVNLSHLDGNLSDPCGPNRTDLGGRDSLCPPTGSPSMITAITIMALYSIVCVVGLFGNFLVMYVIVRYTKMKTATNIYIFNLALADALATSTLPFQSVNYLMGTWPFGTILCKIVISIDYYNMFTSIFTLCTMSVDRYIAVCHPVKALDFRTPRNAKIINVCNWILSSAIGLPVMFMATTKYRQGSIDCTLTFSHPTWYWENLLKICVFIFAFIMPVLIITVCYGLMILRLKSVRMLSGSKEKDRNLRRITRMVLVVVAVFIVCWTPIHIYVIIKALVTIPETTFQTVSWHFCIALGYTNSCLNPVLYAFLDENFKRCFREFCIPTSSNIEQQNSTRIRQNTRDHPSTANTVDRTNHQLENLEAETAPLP
Excerpt: as §1, §2, §3

[8] = target: 5-HT2A (Homo sapiens, UniProt P28223); test: PDSP off-target binding screen; conditions: for inhibition at 10 µM: read-out: Primary screen AVE(%inhib)±SD
5-HT2A, sequence (P28223 whole entry): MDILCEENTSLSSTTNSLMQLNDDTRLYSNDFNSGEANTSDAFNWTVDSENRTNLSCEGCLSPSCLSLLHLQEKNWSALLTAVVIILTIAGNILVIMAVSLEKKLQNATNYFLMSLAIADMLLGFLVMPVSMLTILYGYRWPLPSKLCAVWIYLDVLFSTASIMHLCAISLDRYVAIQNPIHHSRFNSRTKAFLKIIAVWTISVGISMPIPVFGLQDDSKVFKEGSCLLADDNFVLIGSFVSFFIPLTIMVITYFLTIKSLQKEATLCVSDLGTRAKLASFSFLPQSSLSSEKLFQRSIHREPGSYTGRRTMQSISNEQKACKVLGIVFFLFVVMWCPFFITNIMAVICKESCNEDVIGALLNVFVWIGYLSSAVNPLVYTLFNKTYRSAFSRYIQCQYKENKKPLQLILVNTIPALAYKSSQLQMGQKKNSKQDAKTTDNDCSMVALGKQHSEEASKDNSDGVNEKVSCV

[9] = test system: 45 receptors and channels; test: PDSP off-target screen (whole panel); assay type: binding, human
Excerpt: as §1, §2, §3

[10] = Buffer #1 (20 mM Tris pH 8.0), no GSH
[11] = Buffer #2 (1 x PBS pH 7.4), no GSH
[12] = Buffer #3 (20 mM HEPES pH 7.0), no GSH

O=c1c2sc(Cl)cc2n2c(=S)[nH]nc2n1CC1CC1 [Allopole-A]
Compounds detected [1, 10]: 1.3 µmol/L | Compounds detected, % of total [1, 10]: 1.3% | Compounds detected, pk area [1, 10]: 9.61E+06 | Compounds detected ([1]; Buffer #1 + 5 mM GSH): 95.4 µmol/L | Compounds detected, % of total ([1]; Buffer #1 + 5 mM GSH): 95.4% | Compounds detected, pk area ([1]; Buffer #1 + 5 mM GSH): 1.38E+09 | Compounds detected [1, 11]: 0.8 µmol/L | Compounds detected, % of total [1, 11]: 0.8% | Compounds detected, pk area [1, 11]: 4.90E+06 | Compounds detected ([1]; Buffer #2 + 5 mM GSH): 77.9 µmol/L | Compounds detected, % of total ([1]; Buffer #2 + 5 mM GSH): 77.9% | Compounds detected, pk area ([1]; Buffer #2 + 5 mM GSH): 5.81E+08 | Compounds detected [1, 12]: 1.9 µmol/L | Compounds detected, % of total [1, 12]: 1.9% | Compounds detected, pk area [1, 12]: 1.56E+06 | Compounds detected ([1]; Buffer #3 + 5 mM GSH): 66.9 µmol/L | Compounds detected, % of total ([1]; Buffer #3 + 5 mM GSH): 66.9% | Compounds detected, pk area ([1]; Buffer #3 + 5 mM GSH): 1.89E+08 | Cell efficacy (GI50) Mean ± SD [2]: failed to induce any significant antiproliferation effect | Cell efficacy (GI50) Mean ± SD ([2]; listed as 19): N. S. | Ki [3]: > 10 µM | inhibition at 10 µM [3]: -17.7 ± 11.2% | inhibition at 10 µM [4]: 17.7 ± 42.2% | Ki [4]: > 10 µM | inhibition at 10 µM [5]: -7.7 ± 9.7% | Ki [5]: > 10 µM | inhibition at 10 µM [6]: -6.2 ± 19.4% | Ki [6]: > 10 µM | inhibition at 10 µM [7]: 30.8 ± 47.5% | Ki [7]: > 10 µM | Ki [8]: > 10 µM | inhibition at 10 µM [8]: 37 ± 10.4% | Interactions (Ki, µM), summary of PDSP screen (in words) [9]: None observed; also recorded: no interactions

Cn1cnc([N+](=O)[O-])c1Sc1nnc2n(CC3CC3)c(=O)c3sc(Cl)cc3n12 [Allopole]
Compounds detected [1, 10]: 97.9 µmol/L | Compounds detected, % of total [1, 10]: 97.9% | Compounds detected, pk area [1, 10]: 7.45E+08 | Compounds detected ([1]; Buffer #1 + 5 mM GSH): 0.1 µmol/L | Compounds detected, % of total ([1]; Buffer #1 + 5 mM GSH): 0.1% | Compounds detected, pk area ([1]; Buffer #1 + 5 mM GSH): 8.76E+05 | Compounds detected [1, 11]: 97.6 µmol/L | Compounds detected, % of total [1, 11]: 97.6% | Compounds detected, pk area [1, 11]: 6.28E+08 | Compounds detected ([1]; Buffer #2 + 5 mM GSH): 0.0 µmol/L | Compounds detected, % of total ([1]; Buffer #2 + 5 mM GSH): 0.0% | Compounds detected, pk area ([1]; Buffer #2 + 5 mM GSH): 2.41E+03 | Compounds detected [1, 12]: 93.1 µmol/L | Compounds detected, % of total [1, 12]: 93.1% | Compounds detected, pk area [1, 12]: 7.80E+07 | Compounds detected ([1]; Buffer #3 + 5 mM GSH): 0.0 µmol/L | Compounds detected, % of total ([1]; Buffer #3 + 5 mM GSH): 0.0% | Compounds detected, pk area ([1]; Buffer #3 + 5 mM GSH): 9.35E+04 | Unmasking of the prodrug by GSH (in words) ([1]; 5 mM GSH): completely unmask | Stability in buffer (in words) ([1]; absence of GSH): remains stable | GI50 ([2]; Homo sapiens, L-363, 48 h, read-out: Cell efficacy (GI50) Mean ± SD): 4.1 µM | Ki [3]: > 10 µM | inhibition at 10 µM [3]: -0.5 ± 5% | inhibition at 10 µM [4]: 60.8 ± 40.9% | Ki [4]: > 10 µM | inhibition at 10 µM [5]: -1.6 ± 9.5% | Ki [5]: > 10 µM | inhibition at 10 µM [6]: 67.3 ± 49.1% | Ki [6]: > 10 µM | inhibition at 10 µM [7]: 40.6 ± 51% | Ki [7]: > 10 µM | Ki [8]: 9.2 µM | inhibition at 10 µM [8]: 52.4 ± 11.8% | Interactions (Ki, µM), summary of PDSP screen (in words) [9]: only two weak µM interactions
